# Test results from US20210161837A1, “METHODS FOR TREATING CANCER WITH RORGAMMA INHIBITORS” (The Regents of the University of California, priority 2016, published 2021).
# Legend:
# MCF-7-TamR = assay: Growth and survival of tamoxifen-resistant breast cancer cells; format: cell-based, human
# HCC70 cells = assay: Cell viability (CellTiter-GLO), 4 days, TNBC cells; format: cell-based, human
# Method: The “No.” label for each compound corresponds to the “Structure No.” in Table 2 (e.g., “No. 36”=“Structure No. 36” in Table 2). The cell viability curves were measured by CellTiter-GLO.
# For cell viability, cells were seeded in 96-well plates at 1500-2500 cells per well (optimum density for growth) in a total volume of 100 μl media. Serially diluted compounds in 100 μl of media were added to the cells 12 hours later. After 4 days of incubation, Cell-Titer GLO reagents (Promega) were added and luminescence was measured on GLOMAX microplate luminometer (Promega), according to the manufacturer's instructions. All experimental points were set up as sextuplicate as biological replication and the entire experiments were repeated three times. The data are presented as percentage of viable cells with vehicle treated cells set as 100. The estimated in vitro IC50 values were calculated using GraphPad Prism 6 software.
smiles,measurement,setting,value
"O=C(Cc1ccccc1[N+](=O)[O-])Nc1ccc(-c2ccc(C(O)(C(F)(F)F)C(F)(F)F)cc2F)cc1 [XY018, N-(2′-fluoro-4′-(1,1,1,3,3,3-hexafluoro-2-hydroxypropan-2-yl)-[1,1′-biphenyl]-4-yl)-2-(2-nitrophenyl)acetamide]",growth inhibitory effect of tamoxifen in combination with XY018,"MCF-7-TamR; MCF-7-TamR, tamoxifen plus XY018",synergistic growth inhibitory effect
same,inhibition of growth and survival,"MCF-7-TamR; tamoxifen-resistant MCF-7-TamR, XY018 alone",potently inhibiting the growth and survival
same,inhibition of growth and survival,HCC70 cells,strongly inhibited the growth and survival
